Experimental data published in patent US7825139B2, “Compounds and methods for selective inhibition of dipeptidyl peptidase-IV” (Forest Laboratories Holdings Limited (BM), priority 2005, dated 2010).

How the values were obtained:
DPP-IX = biological target: T1, DPP-IX (Homo sapiens, UniProt Q86TI2); test: DPP-IX IC50 assay (Ala-Pro AMC); assay type: biochemical
T1 construct: The full length cDNAs for human DPP-VII, DPP-VIII, DPP-IX, and FAP were obtained from Open Biosystems; 6xHis (C); made in house
Protocol: Materials. S9 insect cells and Sf-900 II SFM media were from Invitrogen. Anti-FLAG M2 immunoaffinity gel was from Sigma. Gly-Pro-AMC, Lys-Pro AMC, and Ala-Pro AMC were from Enzyme Systems. IC50 calculations were performed by non-linear regression analysis using Prism software (GraphPad). Preparation of DPP-VII, DPP-VIII, DPP-IX, and FAP baculovirus constructs. The full length cDNAs for human DPP-VII, DPP-VIII, DPP-IX, and FAP were obtained from Open Biosystems. The cDNAs were cloned into the pFastBac vector with the addition of an N-terminal FLAG tag on DPP-VII, C-terminal 6xHis tags on DPP-VIII and DPP-IX, and an N-terminal 6xHis tag on FAP (Sun 2002, Qi 2003, and Chen 2004). Baculovirus was prepared using the Bac-to-Bac Baculovirus Expression System (Invitrogen). The cDNAs in the final baculovirus constructs were sequence verified. Baculovirus expression. S9 cells were grown to mid log phase at 27C with shaking at 125 RPM and then adjusted to 2×10E6/ml just prior to baculovirus infection. Infection with DPP-VII, DPP-VIII, DPP-IX, and FAP baculoviral constructs were all performed at an MOI of 4. […] Recombinant DPPs were diluted in reaction buffer to give fluorescence values of 5000-20000 counts in the “enzyme only wells” 20 min after addition of substrate at 27° C. […] Fluorescence in each well was measured at settings of 380/460 nm. […]

Zucker Obese Fatty rats = test: Toxicity in rats, oral dosing; assay type: in vivo, rat; details: 5-10 mg/kg, 4-24 hrs post-dose, all Zucker Obese Fatty rats tested
Text: Toxicity in Rats: The Zucker Diabetic Fatty (ZDF) rat model can be used to investigate the effects of the compounds of the invention on both the treatment and prevention of diabetes as rats of this sub-strain are initially pre-diabetic although they develop severe type 2 diabetes characterized by increased HbAl c levels over a period of 6 weeks. The same strain can be used to predict the clinical efficacy of other anti-diabetic drug types. For example, the model predicts the potency and limited clinical efficacy of thiazolidinedione insulin sensitizer compounds. The experimental protocol requires p.o. (oral gavage) administration of either vehicle or test article at indicated doses either QD or BID using a gastric feeding needle with a ball tip, without anesthesia, using hand restraint to adult rats which have been fasted overnight. Animals are monitored for clinical signs at 1, 2, 4 and 8 hour time intervals following the treatment regimen. Whole blood samples (to a maximum level of 10% of the total blood volume every 2 weeks) were collected from the animals from the retro-orbital sinus in accordance with the guidelines of the IACUC committee.
The expected therapeutic dose level could not be reached for the comparative compounds before acute toxicity was observed.

T1 sequence (Q86TI2 whole entry): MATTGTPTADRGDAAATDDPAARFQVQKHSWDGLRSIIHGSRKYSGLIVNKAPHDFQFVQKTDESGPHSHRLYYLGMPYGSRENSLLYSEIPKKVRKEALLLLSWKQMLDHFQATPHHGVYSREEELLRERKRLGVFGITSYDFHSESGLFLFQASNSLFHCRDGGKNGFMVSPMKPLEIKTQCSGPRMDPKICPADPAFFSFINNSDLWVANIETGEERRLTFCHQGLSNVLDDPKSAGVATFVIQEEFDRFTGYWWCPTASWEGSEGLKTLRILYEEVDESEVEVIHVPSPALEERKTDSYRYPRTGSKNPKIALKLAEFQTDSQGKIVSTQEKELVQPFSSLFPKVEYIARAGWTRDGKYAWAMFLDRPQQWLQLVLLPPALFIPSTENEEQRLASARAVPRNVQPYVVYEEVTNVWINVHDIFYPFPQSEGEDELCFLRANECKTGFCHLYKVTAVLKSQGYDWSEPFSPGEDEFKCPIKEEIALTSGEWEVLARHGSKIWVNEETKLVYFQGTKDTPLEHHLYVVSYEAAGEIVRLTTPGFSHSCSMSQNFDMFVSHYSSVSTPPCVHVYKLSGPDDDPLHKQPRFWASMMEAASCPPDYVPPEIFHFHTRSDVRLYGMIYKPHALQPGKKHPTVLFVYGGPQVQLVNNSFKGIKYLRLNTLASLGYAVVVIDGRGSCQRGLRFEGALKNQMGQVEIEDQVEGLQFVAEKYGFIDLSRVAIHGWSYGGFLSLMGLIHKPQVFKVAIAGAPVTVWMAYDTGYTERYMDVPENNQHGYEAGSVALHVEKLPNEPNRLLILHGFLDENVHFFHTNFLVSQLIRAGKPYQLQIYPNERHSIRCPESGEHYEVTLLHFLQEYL

In the case of O=C(CNC1CCCC1)N1CCC[C@H]1B(O)O [Compound 19], the “inhibition of DPP-IX (in words)” value (DPP-IX) is reported as “potent inhibitor” and the “acute toxicity in rats” value (Zucker Obese Fatty rats) is reported as “acute toxicity (death)”.
